In test [1] the target is T1, GST-tagged p300 CH1 domain (AAs 302-423) / HIF1α (AAs 788-826) (Homo sapiens, UniProt Q09472).
T1 construct: GST-tagged p300 CH1 domain (AAs 302-423)
Nature of the test: Biolayer interferometry competition for binding to p300 CH1 domain. As to conditions: 300 nM p300 CH1. The procedure:
Biolayer inferometry (ForteBio, Menlo Park Calif.) was used to measure competition of SP-6 for HIF1α (AAs 788-826). Biotinylated HIF1α peptide was captured on […] biosensor tip. The association of 300 nM GST-tagged p300 CH1 domain (AAs 302-423) in the presence or absence of varying concentrations of SP-6 was measured for 240 s. Dissociation was monitored for a minimum of 200 s in the absence of free p300 or stapled peptide. Binding of p300 to biosensor immobilized HIF1α target was analyzed with instrument software and total response (R) was proportional to binding.
Inhibition of p300 binding was calculated as % inhibition=[…]. A concentration of 10 μM SP-6 blocked 99% of the total binding. The inhibition was dose-dependent, with 2 μM inhibiting 50% of p300/HIF1α binding.
(In general: In BLI a coated tip is dipped into the sample, and binding shifts an interference pattern.)

Test [2] concerns the target T2, His6-tagged p300 (AA 323-423) (UniProt Q09472 323-423).
T2 construct: range 323-423; also called p300-CH; not shown: His6 tag
Nature of the test: TR-FRET HIF1a/p300 displacement; grade = IC50 <=200 nM. The procedure:
The ability of peptides to displace HIF1α c-terminal trans-activation domain from p300-CH was measured by a TR FRET assay. […] The complex was diluted to 300 nM final in complete assay media and competitor peptides were added. The complete assay media contained 150 mM NaCl (Sigma +S5150 or equivalent), 20 mM HEPES pH 7.4 (Boston Bioproducts, Ashland, Mass.; #BB-2076), 7.5 mM CHAPS (Thermo #28300 or equivalent), and 1 mM DTT. Protein and peptide were incubated at room temperature for 1 hour before the addition of anti-Flag-K and anti-6×HIS-D2 (CisBio, Bedford Mass.) HTRF reconstitution buffer (50 mM Phosphate pH 7, 0.8 Potassium Flouride, BSA 0.2%)¹ to a final concentration of 0.5 μM and 4 nM respectively. The reaction continued for an additional two hours at room temperature. The reaction was read on a TECAN F500 plate reader with settings recommended by CisBio. The ratio of donor to acceptor fluorescence was calculated. The resulting data was analyzed with Graphpad Prism 5.0. IC50 values were calculated for both proteins using the One Site Fit-LogIC50 equation and presented in the column “IC₅₀ (nM) (HIF1α_p300 Displacement+CHAPS)” of Table 6. ¹ Cisbio USA, Bedford, Mass.; 61HISDLB (lot 007A), 61FG2KLB (024A), HTRF Buffer (62RB3RDF)
A general note: In TR-FRET formats the signal depends on donor and acceptor labels being close together.

Test [3] addresses T3, GST-tagged p300 CH1 domain (AAs 302-423) (UniProt Q09472 302-423).
T3 construct: range 302-423; not shown: GST tag
Nature of the test: BLI competition, 300 nM GST-p300 CH1 on immobilised HIF1α 788-826. The procedure:
Biotinylated HIF1α peptide was captured on Ni-NTA biosensor tip. The association of 300 nM GST-tagged p300 CH1 domain (AAs 302-423) in the presence or absence of varying concentrations of SP-6 was measured for 240 s. Dissociation was monitored for a minimum of 200 s in the absence of free p300 or stapled peptide. Binding of p300 to biosensor immobilized HIF1α target was analyzed with instrument software and total response (R) was proportional to binding.
A concentration of 10 μM SP-6 blocked 99% of the total binding. The inhibition was dose-dependent, with 2 μM inhibiting 50% of p300/HIF1α binding.

Bridge positions count the residues as written; N and C are the ends. Square brackets hold non-standard residues; d marks the D form. Peptide text beside a SMILES is read from it. S5 = C=CCCC[C@](C)(N)C(=O)O; Nle = CCCC[C@H](N)C(=O)O

The term inhibition denotes how much of the control response was suppressed. A lower inhibition goes with a weak effect. By IC50 is commonly meant the concentration at which inhibition is half-maximal.

T1 sequence (Q09472 302-423): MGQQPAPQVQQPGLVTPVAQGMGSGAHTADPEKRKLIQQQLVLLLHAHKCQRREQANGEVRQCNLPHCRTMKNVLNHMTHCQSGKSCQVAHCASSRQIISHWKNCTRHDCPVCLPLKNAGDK
T2 sequence (Q09472 323-423 limits assumed): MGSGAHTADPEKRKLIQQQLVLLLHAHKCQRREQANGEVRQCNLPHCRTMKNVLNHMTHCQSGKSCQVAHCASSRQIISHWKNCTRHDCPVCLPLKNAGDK
T3 sequence (Q09472 302-423 limits assumed): as the sequence (Q09472 302-423) above

With `CCCC[C@H](NC(=O)[C@H](CC(C)C)NC(=O)[C@@H](NC(=O)[C@H](CCC(=O)O)NC(=O)[C@H](CCC(=O)O)NC(=O)[C@H](CC(=O)O)NC(=O)[C@@H](NC(=O)[C@H](Cc1ccccc1)NC(C)=O)[C@@H](C)CC)C(C)C)C(=O)N[C@@]1(C)CCCC=CCCC[C@@](C)(C(=O)N[C@@H](CCCC)C(=O)N[C@@H](C)C(=O)N[C@@H](CC(C)C)C(=O)N[C@@H](CC(=O)O)C(=O)N[C@@H](CCCNC(=N)N)C(=O)N[C@H](C(N)=O)[C@@H](C)CC)NC(=O)[C@H]([C@@H](C)CC)NC(=O)[C@H](C(C)C)NC(=O)[C@H](CC(C)C)NC1=O` [SP-6] (Ac-FIDEEVL[Nle][S5]LVI[S5][Nle]ALDRI-NH2; staple 9-13), the inhibition at 2 µM in test [1] (2 μM) was 50%. The molecule also came in with an inhibition at 10 µM in test [1] (10 μM) of 99%.

B1: SP-6 (peptide)
peptide: Ac-FIDEEVL[Nle][S5]LVI[S5][Nle]ALDRI-NH2
modifications: staple 9-13
SMILES: CCCC[C@H](NC(=O)[C@H](CC(C)C)NC(=O)[C@@H](NC(=O)[C@H](CCC(=O)O)NC(=O)[C@H](CCC(=O)O)NC(=O)[C@H](CC(=O)O)NC(=O)[C@@H](NC(=O)[C@H](Cc1ccccc1)NC(C)=O)[C@@H](C)CC)C(C)C)C(=O)N[C@@]1(C)CCCC=CCCC[C@@](C)(C(=O)N[C@@H](CCCC)C(=O)N[C@@H](C)C(=O)N[C@@H](CC(C)C)C(=O)N[C@@H](CC(=O)O)C(=O)N[C@@H](CCCNC(=N)N)C(=O)N[C@H](C(N)=O)[C@@H](C)CC)NC(=O)[C@H]([C@@H](C)CC)NC(=O)[C@H](C(C)C)NC(=O)[C@H](CC(C)C)NC1=O
As to B1, the IC50 is not above 200 nM in test [2] and 2000 nM in test [3].

The values above are taken from patent US20190225650A1, “PEPTIDOMIMETIC MACROCYCLES AND USE THEREOF IN REGULATING HIF1ALPHA” (AILERON THERAPEUTICS, INC., priority 2013, published 2019).
